≈ marks a conversion by molar mass, not a printed value. Read-outs that look alike come from different tables or passages of the source.
Legend:
Format in all cases: cell-based
[1] = tested on: vancomycin resistant enterococci (VRE); test: Broth microdilution MIC50/MIC90, VRE panel; settings: 10 VRE strains; for MIC90: read-out: MIC 90
[2] = tested on: Vancomycin Resistant Staphylococcus aureus (VRSA); test: Broth microdilution MIC/MBC, VRSA; settings: for MBC / MIC: VRSA
Bacillus anthracis = test: microbe, parasite or virus in culture
B. cereus = test: Broth microdilution MIC/MBC, B. cereus; settings: Bacillus cereus; for MBC: read-out: MBC; for MIC: read-out: MIC
Description: The broth microdilution technique was used, followed by subculturing on agar plates that were rhodanine—free.

B. licheniformis = test: Broth microdilution MIC/MBC, B. licheniformis; settings: Bacillus licheniformis; for MBC: read-out: MBC; for MIC: read-out: MIC
Mycobacterium smegmatis = test: Broth microdilution MIC/MBC, Mycobacterium smegmatis; settings: Mycolicibacterium smegmatis, ATCC14468, M. Smegmatis ATCC 14468
Acinetobacter baumannii [3] = test: Broth microdilution MIC, Acinetobacter baumannii
Escherichia coli O157:H7 [4] = test: MIC with/without sub-MIC colistin, Escherichia coli O157:H7
Procedure, shortened: (§1)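 Sub-MIC colistin or PMBN added to broth MIC tests of rhodanines and reference antibiotics against Gram-negative strains; AcrAB efflux-deficient E. coli SM1411ΔacrAB also tested.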

Salmonella Typhimurium [5] = test: MIC with/without sub-MIC colistin, Salmonella Typhimurium
Procedure, shortened: as §1

Klebsiella pneumoniae = test: MIC with/without sub-MIC colistin, Klebsiella pneumoniae
Procedure, shortened: as §1

Pseudomonas aeruginosa = test: MIC with/without sub-MIC colistin, Pseudomonas aeruginosa
Procedure, shortened: as §1

Acinetobacter baumannii [6] = test: MIC with/without PMBN, Acinetobacter baumannii
Procedure, shortened: as §1

Escherichia coli O157:H7 [7] = test: MIC with/without PMBN, Escherichia coli O157:H7
Procedure, shortened: as §1

Salmonella Typhimurium [8] = test: MIC with/without PMBN, Salmonella Typhimurium
Procedure: (§2) The MIC of the rhodanines and control antibiotics, in the presence of a sub-inhibitory concentration of colistin or polymixin B nonapeptide (PMBN), against Gram-negative bacteria was evaluated as described before. The antibacterial activity of the rhodanines was further investigated against E. coli SM1411Δ acrAB, a strain that is deficient in the multidrug-resistant AcrAB efflux pump, as described before.

Escherichia coli Δ acrAB = test: MIC against E. coli 1411 and AcrAB efflux pump deficient E. coli SM1411Δ acrAB
Procedure: as §2

[9] = NRS201, B. cereus NRS 201 NR-2488
[10] = NCIB9375, B. licheniformis Gibson 46 (NCIB 9375) NR-2494
[11] = NRS712, B. licheniformis NRS 712 NR-2499
[12] = Salmonella enterica, ATCC 700720 / TYPHIMURIUM

Structure (SMILES): O=C(O)[C@H](Cc1ccccc1)N1C(=O)/C(=C/c2cccc(-c3ccc(Cl)c(Cl)c3)c2)SC1=S [Rh 2]
- MIC90 [1]: 4 µM (≈ 2.06 µg/mL)
- MIC90 ([1]; Enterococcus, VRE): 8 µM (≈ 4.12 µg/mL)
- MIC50 ([1]; Enterococcus, read-out: MIC 50): 4 µM (≈ 2.06 µg/mL)
- MIC50 ([2]; 15 VRSA strains, read-out: MIC 50): 4 µM (≈ 2.06 µg/mL)
- MIC90 ([2]; 15 VRSA strains, read-out: MIC 90): 4 µM (≈ 2.06 µg/mL)
- MBC ([2]; VRSA 1, read-out: MBC): 8 µM (≈ 4.12 µg/mL)
- MIC ([2]; VRSA 1, read-out: MIC): 4 µM (≈ 2.06 µg/mL)
- MBC ([2]; VRSA 2, read-out: MBC): 4 µM (≈ 2.06 µg/mL)
- MIC ([2]; VRSA 2, read-out: MIC): 4 µM (≈ 2.06 µg/mL)
- MBC ([2]; VRSA 3a, read-out: MBC): 16 µM (≈ 8.23 µg/mL)
- MIC ([2]; VRSA 3a, read-out: MIC): 4 µM (≈ 2.06 µg/mL)
- MBC ([2]; VRSA 3b, read-out: MBC): 4 µM (≈ 2.06 µg/mL)
- MIC ([2]; VRSA 3b, read-out: MIC): 4 µM (≈ 2.06 µg/mL)
- MBC ([2]; VRSA 4, read-out: MBC): 4 µM (≈ 2.06 µg/mL)
- MIC ([2]; VRSA 4, read-out: MIC): 4 µM (≈ 2.06 µg/mL)
- MBC ([2]; VRSA 5, read-out: MBC): 64 µM (≈ 32.9 µg/mL)
- MIC ([2]; VRSA 5, read-out: MIC): 4 µM (≈ 2.06 µg/mL)
- MBC ([2]; VRSA 6, read-out: MBC): 16 µM (≈ 8.23 µg/mL)
- MIC ([2]; VRSA 6, read-out: MIC): 4 µM (≈ 2.06 µg/mL)
- MBC ([2]; VRSA 7, read-out: MBC): 32 µM (≈ 16.5 µg/mL)
- MIC ([2]; VRSA 7, read-out: MIC): 4 µM (≈ 2.06 µg/mL)
- MBC ([2]; VRSA 8, read-out: MBC): 8 µM (≈ 4.12 µg/mL)
- MIC ([2]; VRSA 8, read-out: MIC): 4 µM (≈ 2.06 µg/mL)
- MBC ([2]; VRSA 9, read-out: MBC): 32 µM (≈ 16.5 µg/mL)
- MIC ([2]; VRSA 9, read-out: MIC): 8 µM (≈ 4.12 µg/mL)
- MBC ([2]; VRSA 10, read-out: MBC): 32 µM (≈ 16.5 µg/mL)
- MIC ([2]; VRSA 10, read-out: MIC): 4 µM (≈ 2.06 µg/mL)
- MBC ([2]; VRSA 11a, read-out: MBC): 4 µM (≈ 2.06 µg/mL)
- MIC ([2]; VRSA 11a, read-out: MIC): 4 µM (≈ 2.06 µg/mL)
- MBC ([2]; VRSA 11b, read-out: MBC): 64 µM (≈ 32.9 µg/mL)
- MIC ([2]; VRSA 11b, read-out: MIC): 4 µM (≈ 2.06 µg/mL)
- MBC ([2]; VRSA 12, read-out: MBC): 32 µM (≈ 16.5 µg/mL)
- MIC ([2]; VRSA 12, read-out: MIC): 4 µM (≈ 2.06 µg/mL)
- MBC ([2]; VRSA 13, read-out: MBC): 64 µM (≈ 32.9 µg/mL)
- MIC ([2]; VRSA 13, read-out: MIC): 4 µM (≈ 2.06 µg/mL)
- MBC (Bacillus anthracis; Bacillus anthracis AMES35): 2 µM (≈ 1.03 µg/mL)
- MIC (Bacillus anthracis; Bacillus anthracis AMES35): 2 µM (≈ 1.03 µg/mL)
- MBC (Bacillus anthracis; Bacillus anthracis UM23): 2 µM (≈ 1.03 µg/mL)
- MIC (Bacillus anthracis; Bacillus anthracis UM23): 2 µM (≈ 1.03 µg/mL)
- MBC (Bacillus anthracis; Bacillus anthracis Weybridge): 2 µM (≈ 1.03 µg/mL)
- MIC (Bacillus anthracis; Bacillus anthracis Weybridge): 2 µM (≈ 1.03 µg/mL)
- MBC (B. cereus; B. cereus BAG1O-2 NR-28582): 4 µM (≈ 2.06 µg/mL)
- MIC (B. cereus; B. cereus BAG1O-2 NR-28582): 4 µM (≈ 2.06 µg/mL)
- MBC (B. cereus; B. cereus BAG1X1-1 NR-28575): 2 µM (≈ 1.03 µg/mL)
- MIC (B. cereus; B. cereus BAG1X1-1 NR-28575): 2 µM (≈ 1.03 µg/mL)
- MBC (B. cereus; B. cereus BAG1X2-1 NR-28578): 4 µM (≈ 2.06 µg/mL)
- MIC (B. cereus; B. cereus BAG1X2-1 NR-28578): 2 µM (≈ 1.03 µg/mL)
- MBC (B. cereus; B. cereus G9241 NR-9564): 4 µM (≈ 2.06 µg/mL)
- MIC (B. cereus; B. cereus G9241 NR-9564): 4 µM (≈ 2.06 µg/mL)
- MBC (B. cereus; B. cereus VD014 NR-22141): 2 µM (≈ 1.03 µg/mL)
- MIC (B. cereus; B. cereus VD014 NR-22141): 2 µM (≈ 1.03 µg/mL)
- MBC (B. cereus; B. cereus VD115 NR-22148): 4 µM (≈ 2.06 µg/mL)
- MIC (B. cereus; B. cereus VD115 NR-22148): 4 µM (≈ 2.06 µg/mL)
- MBC (B. cereus; B. cereus VD148 NR-22150): 2 µM (≈ 1.03 µg/mL)
- MIC (B. cereus; B. cereus VD148 NR-22150): 2 µM (≈ 1.03 µg/mL)
- MBC (B. cereus; [9]): 4 µM (≈ 2.06 µg/mL)
- MIC (B. cereus; [9]): 4 µM (≈ 2.06 µg/mL)
- MBC (B. licheniformis; [10]): 2 µM (≈ 1.03 µg/mL)
- MIC (B. licheniformis; [10]): 2 µM (≈ 1.03 µg/mL)
- MBC (B. licheniformis; [11]): 4 µM (≈ 2.06 µg/mL)
- MIC (B. licheniformis; [11]): 4 µM (≈ 2.06 µg/mL)
- MBC (Mycobacterium smegmatis; read-out: MBC): 8 µM (≈ 4.12 µg/mL)
- MIC (Mycobacterium smegmatis; read-out: MIC): 4 µM (≈ 2.06 µg/mL)
- MIC (Acinetobacter baumannii [3]; ATCC13345): > 128 µM
- MIC (Acinetobacter baumannii [3]; ATCC17786): > 128 µM
- MIC (Escherichia coli O157:H7 [4]; Escherichia coli O157:H7 ATCC 35150, colistin (+) […], read-out: MIC): >64 µM
- MIC (Escherichia coli O157:H7 [4]; Escherichia coli O157:H7 ATCC 700728, colistin (+) […], read-out: MIC): >64 µM
- MIC (Escherichia coli O157:H7 [4]; Escherichia coli, ATCC35150): > 128 µM
- MIC (Escherichia coli O157:H7 [4]; Escherichia coli, ATCC700728): > 128 µM
- MIC (Salmonella Typhimurium [5]; Salmonella Typhimurium ATCC 700720, colistin (+) […], read-out: MIC): >64 µM
- MIC (Salmonella Typhimurium [5]; [12]): > 128 µM
- MIC (Klebsiella pneumoniae; Klebsiella pneumoniae ATCC BAA 2146, colistin (+) […]): >64 µM
- MIC (Klebsiella pneumoniae; Klebsiella pneumoniae, BAA2146): > 128 µM
- MIC (Pseudomonas aeruginosa; Pseudomonas aeruginosa ATCC 921, colistin (+) […], read-out: MIC): >64 µM
- MIC (Pseudomonas aeruginosa; Pseudomonas aeruginosa, ATCC921): > 128 µM
- MIC (Acinetobacter baumannii [6]; Acinetobacter baumannii ATCC BAA747, PMBN (+) 4 μg/mL, read-out: MIC): >64 µM
- MIC (Acinetobacter baumannii [6]; Acinetobacter baumannii ATCC BAA19606, PMBN (+) 4 μg/mL, read-out: MIC): >64 µM
- MIC (Acinetobacter baumannii [6]; Acinetobacter baumannii, ATCCBAA747): > 128 µM
- MIC (Acinetobacter baumannii [6]; Acinetobacter baumannii, ATCCBAA19606): > 128 µM
- MIC (Escherichia coli O157:H7 [7]; Escherichia coli O157:H7 ATCC 35150, PMBN (+) 4 μg/mL, read-out: MIC): 8 µM (≈ 4.12 µg/mL)
- MIC (Escherichia coli O157:H7 [7]; Escherichia coli O157:H7 ATCC 700728, PMBN (+) 4 μg/mL, read-out: MIC): >64 µM
- MIC (Escherichia coli O157:H7 [7]; Escherichia coli, ATCC35150): > 256 µM
- MIC (Escherichia coli O157:H7 [7]; Escherichia coli, ATCC700728): > 128 µM
- MIC (Salmonella Typhimurium [8]; Salmonella Typhimurium ATCC 700720, PMBN (+) 4 μg/mL, read-out: MIC): >128 µM
- MIC (Salmonella Typhimurium [8]; [12]): > 128 µM
- MIC (Escherichia coli Δ acrAB; E.coli 1411): > 64 µM
- MIC (Escherichia coli Δ acrAB; E.coli 1411 SM (Δ acrAB, AcrAB efflux pump deficient)): > 64 µM

Reference: PMC5053523, “In Vitro Antibacterial Activity of Rhodanine Derivatives against Pathogenic Clinical Isolates” (PLoS ONE, 2016)
